Source: US20150018566A1, “TUBULIN BINDING AGENTS” (priority 2011, published 2015)

How the values were obtained:
tubulin = target: T1, tubulin (Sus scrofa, UniProt P02550+P02554); test: Tubulin assembly assay (tubulin binding); type: biochemical, porcine; settings: under the assay conditions used
T1 construct: The procedure used is modified from Shelanski et al; from tissue
Method: The buffer was prepared with deionised water and the pH of the solution was adjusted to 6.6 by the drop-wise addition of 10M aq. NaOH. The buffer was stored at 4° C. prior to use.
Equipment: A Fluostar Optima 96 well plate reader equipped with a thermostat capability.
The tubulin assembly was followed by observing an increase in optical density of a tubulin solution at 350 nm at 37° C. Typically 1 ml of tubulin solution was diluted with EB (5 ml) and GTP solution (25 μl, 5 μl per ml of EB added) to the mixture. The mixture was vortexed for ten seconds in order to ensure the homogeneity of the mixture. 100 μl of the resultant solution was pipetted into a well in the 96 well plate. The increase in optical density of the tubulin solution was measured over a time course of ten minutes at 350 nm and 37° C. […] Accordingly, adjustments were made to the quantity of buffer added in order to obtain a protein concentration within the desired range. […] Tubulin solution (1000 was subsequently pipetted into each of the same three wells. The plate was immediately incubated at 37° C. and was subjected to orbital shaking for five seconds. The UV absorption was measured at 350 nm over a time course of ten minutes. The maximum slope of the resulting curve was measured. The slope of the blank represents the maximum rate of tubulin polymerisation.

rat aortic ring cultures [1] = test: Aortic ring assay (anti-vascular model); type: cell-based; settings: 1 μM
Method: The aortic ring assay is an ideal assay for testing the activity of anti-vascular, anti-angiogenic or pro-angiongenic agents. This method was originally developed and modified by Nicosia. The aorta can be excised from mice or rats, cut into ˜1 mm rings and cultured in either basement membrane matrix (matrigel) or collagen gel. Following incubation for several days the rings start to generate outgrowths of branching microvessels which are lined by endothelial cells and supported by pericytes and fibroblasts. The angiogenic response of the aorta is a self-limited process regulated by endogenous growth factors including bFGF [13], VEGF [14], PDGF [15] and angiopoietins.
The rat aorta model is an ex vivo assay which combines advantages of both in vitro and in vivo models. The process of angiogenesis takes place in a defined culture environment which can be easily adapted to different experimental conditions according to the requirement of the study. The cells of the aortic outgrowth have not been modified by repeated passages in culture and thus newly formed microvessels reproduce the characteristics of the vasculature formed during angiogenesis in vivo [17-18]. There is no influx of leukocytes from circulating blood therefore inflammatory complications which affect the interpretation of in vivo assays are minimised. For the purpose of this study, rat aortic ring cultures were used to investigate firstly the anti-vascular and then the anti-angiogenic activity of test compounds.
The successful growth of the aortic rings into a mircovessel network was dependent on several factors including (i) the amount of periaortic fibroadipose tissue left on the ring, (ii) the orientation of the ring, the way which the ring was embedded into the matrigel and (iii) the volume of the matrigel used.
The aortic ring assay is an ex vivo assay which allows the analyst to examine the inhibition/stimulation of angiogenesis as well as the breakdown of existing vasculature. Basement membrane matrix (matrigel) was stored at −20° C. Prior to use, matrigel vial was placed on ice and kept at 4° C. overnight in order to thaw. The matrigel was kept on ice at all times for the duration of the experiment. Aortic rings were obtained by excising the thoracic aorta of 5-10 weeks old Wistar male rats and removing the fibroadipose tissue from the aortic wall. The rings were obtained by cross-sectioning the aorta at ˜1 mm intervals, removed any blood clots by washing several times with EBM-2. Matrigel (80 μl) was placed uniformly in each well of a 12-well plate and the aortic rings were then placed individually in between the matrigel layer with the lumen perpendicular to the surface of the plate. The matrigel solution was allowed to solidify for 30-40 minutes at 37° C. and 1 ml EBM-2 medium (supplemented with 2% FBS and […] streptomycin/penicillin solution) was added to each culture. The aortic rings were kept in a humidified CO2 incubator at 37° C. and fresh medium was replaced three times a week starting from day 3. Once an established microvessel network was developed (day 7-9), test compounds diluted in EBM-2 medium (1 ml) were added to each well and incubated at 37° C. for 24 h. The cultures were monitored for microvessel breakdown over time and images were taken 1 h, 4 h and 24 h after treatment using an Olympus CKX41 inverted microscope. Images were captured with an E-330 SLR camera system and processed using Cell̂ A software. Each compound concentration was tested in duplicate. Results were presented as images showing the microvessel breakdown at each time point.

rat aortic ring cultures [2] = test: Aortic ring assay (anti-angiogenic effect); type: cell-based

T1 sequence (P02550 whole entry): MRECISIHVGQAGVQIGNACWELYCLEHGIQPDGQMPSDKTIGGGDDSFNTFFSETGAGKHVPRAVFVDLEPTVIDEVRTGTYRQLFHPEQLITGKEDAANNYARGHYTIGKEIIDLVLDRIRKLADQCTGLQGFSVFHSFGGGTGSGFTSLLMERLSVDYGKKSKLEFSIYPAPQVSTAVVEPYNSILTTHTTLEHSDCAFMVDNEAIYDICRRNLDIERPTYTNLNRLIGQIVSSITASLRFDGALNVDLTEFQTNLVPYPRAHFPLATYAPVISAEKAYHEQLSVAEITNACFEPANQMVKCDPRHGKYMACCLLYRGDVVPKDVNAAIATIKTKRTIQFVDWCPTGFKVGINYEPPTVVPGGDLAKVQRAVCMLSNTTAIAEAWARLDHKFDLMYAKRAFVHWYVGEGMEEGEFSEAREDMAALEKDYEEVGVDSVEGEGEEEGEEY
T1 sequence (P02554 whole entry): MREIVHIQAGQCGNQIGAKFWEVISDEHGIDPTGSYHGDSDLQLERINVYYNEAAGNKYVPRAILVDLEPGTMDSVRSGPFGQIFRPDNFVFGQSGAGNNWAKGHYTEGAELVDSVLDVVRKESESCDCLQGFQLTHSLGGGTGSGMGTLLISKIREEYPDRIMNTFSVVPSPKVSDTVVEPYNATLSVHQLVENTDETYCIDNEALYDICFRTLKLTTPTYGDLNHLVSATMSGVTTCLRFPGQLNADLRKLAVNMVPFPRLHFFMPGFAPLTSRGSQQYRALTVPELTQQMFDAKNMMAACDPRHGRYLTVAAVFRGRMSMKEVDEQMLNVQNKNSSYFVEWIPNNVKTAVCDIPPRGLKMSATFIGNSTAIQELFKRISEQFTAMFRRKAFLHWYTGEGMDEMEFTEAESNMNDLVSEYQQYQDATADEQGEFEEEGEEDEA

Row | SMILES | tubulin binding activity (in words) (tubulin) | anti-vascular effect on established microvessel network (rat aortic ring cultures [1]; 4 h of treatment) | anti-vascular effect on established microvessel network (rat aortic ring cultures [1]; 24 h incubation) | anti-angiogenic effect (microvessel area) (rat aortic ring cultures [2]; 0.1 μM) | anti-angiogenic effect (microvessel density) (rat aortic ring cultures [2]; 1 μM)
1 | COc1ccc(C2=CC(=O)CCc3cc(OC)c(OC)c(OC)c32)cc1O [Compound 12, 9-(3-hydroxy-4-methoxyphenyl)-1,2,3-trimethoxy-6,7-dihydro-5H-benzo[a]cyclohepten-7-one] | inactive | – | – | – | –
2 | COc1ccc(C2=C/C(=N/OCC(=O)NO)CCc3c2cc(OC)c(OC)c3OC)cc1N [Compound 30, 2-[9-(3-Amino-4-methoxy-phenyl)-2,3,4-trimethoxy-5,6-dihydro-benzocyclohepten-7-ylideneaminooxy]-N-hydroxy-acetamide] | – | satisfactory activity | clear microvessel disruption | negligible reduction | significantly (p<0.01) lower microvessel density
